Reference: patent publication US20100150845A1, “SYSTEM AND METHOD FOR THE DELIVERY OF A SANITIZING FOAM” (GREEN SOURCE AUTOMATED, LLC, priority 2008, published 2010)
Read-outs that look alike come from different tables or passages of the source.

Key:
[1] = Gas dissolved in teat dip solution under pressure; format: physicochemical; details: standard room temperature and 100 psi pressure
From the text: The pressure vessel was constructed from a 0.1 m outside diameter piece of stainless steel tubing. The ends of the tube were capped with tri clover fittings to allow ease of access. The tri-clover caps were modified by adding two entry points on the proximal cap. One entry point on the proximal cap is to allow propellant/diffused gas to be introduced and the other is used to bleed off atmospheric air, when the tank was initially filled with propellant/diffused gas and to relieve pressure before refilling. On the distal cap of the tank two openings were added, each with tubing securely attached and each tube going to a manual shut off valve with a spray nozzle attached. A propellant/diffusion gas source with regulator was attached to the pressure vessel through the entry point on the proximal cap. The pressure vessel is filled about half full with teat dip solution, closed and the tank is pressurized with approximately 100 pounds per square inch (psi) of propellant/diffusion gas, except for the 50% carbon dioxide and 50% nitrous oxide propellant/diffusion gas which is set at 150 psi. The distance and angle from nozzle to teat is 0.15 m and 45 degrees from the horizontal (which were set to mimic a robotic tool used for some embodiments). […]

[2] = cited from earlier work

SMILES: O=C=O [CO2, Carbon dioxide]
- volumes of gas dissolved per volume of dip solution [1]: approximately 4.5 volumes
- vapor pressure ([2]; at 185° K.): approximately 0.45 bar
- vapor pressure ([2]; at 290° K.): approximately 50 bar

SMILES: [N-]=[N+]=O [Example N2O, nitrous oxide]
- volumes of gas dissolved in one volume of the dip solution [1]: approximately four
- vapor pressure ([2]; at 185° K.): approximately 1 bar
- vapor pressure ([2]; at 290° K.): approximately 50 bar
